The source made the active and inactive calls. No cut-off for these calls is given here.
How the values were obtained:
[1] = test system: HT-29; assay: Antiproliferative activity against human HT-29 cells assessed as inhibition of cell proliferation at 10 uM incubated for 72 hrs by CCK8 assay relative to control; type: functional; parameters: scale not given: the % may be the effect or the level left
[2] = biological target: Phosphatidylinositol 4,5-bisphosphate 3-kinase catalytic subunit alpha isoform (Homo sapiens) (UniProt P42336); assay: Inhibition on PI3Kalpha (unknown origin) at 1 nM by kinase-glo plus luminescent assay relative to control
Chain of Phosphatidylinositol 4,5-bisphosphate 3-kinase catalytic subunit alpha isoform (Homo sapiens) (P42336 whole entry, canonical isoform): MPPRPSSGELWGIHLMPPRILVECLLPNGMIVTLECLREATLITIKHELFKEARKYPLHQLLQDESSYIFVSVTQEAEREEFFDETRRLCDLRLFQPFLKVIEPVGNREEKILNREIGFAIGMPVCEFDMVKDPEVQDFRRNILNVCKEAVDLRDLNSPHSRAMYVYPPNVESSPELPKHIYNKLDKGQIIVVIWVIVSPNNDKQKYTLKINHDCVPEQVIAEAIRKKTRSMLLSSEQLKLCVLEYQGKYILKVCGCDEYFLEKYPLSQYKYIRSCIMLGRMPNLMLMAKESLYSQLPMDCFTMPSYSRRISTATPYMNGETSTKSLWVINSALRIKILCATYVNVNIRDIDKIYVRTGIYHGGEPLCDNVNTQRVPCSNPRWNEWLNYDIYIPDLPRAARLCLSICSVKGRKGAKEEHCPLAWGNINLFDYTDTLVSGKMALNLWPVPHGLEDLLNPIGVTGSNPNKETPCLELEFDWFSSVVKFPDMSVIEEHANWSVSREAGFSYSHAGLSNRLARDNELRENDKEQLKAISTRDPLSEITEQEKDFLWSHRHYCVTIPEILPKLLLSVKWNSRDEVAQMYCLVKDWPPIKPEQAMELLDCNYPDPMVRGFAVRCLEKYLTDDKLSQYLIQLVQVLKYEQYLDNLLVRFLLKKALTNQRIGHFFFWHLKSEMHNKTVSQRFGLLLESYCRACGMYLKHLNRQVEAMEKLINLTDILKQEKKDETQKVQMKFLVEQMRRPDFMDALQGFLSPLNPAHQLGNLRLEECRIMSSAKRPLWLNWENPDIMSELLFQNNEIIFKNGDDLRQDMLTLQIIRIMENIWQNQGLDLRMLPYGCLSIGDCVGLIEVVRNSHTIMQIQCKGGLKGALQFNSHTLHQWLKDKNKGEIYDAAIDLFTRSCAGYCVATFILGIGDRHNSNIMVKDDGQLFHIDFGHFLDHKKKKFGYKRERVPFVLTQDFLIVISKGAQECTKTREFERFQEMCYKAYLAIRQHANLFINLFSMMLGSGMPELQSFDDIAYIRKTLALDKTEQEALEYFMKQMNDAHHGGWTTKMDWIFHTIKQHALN

[3] = test system: HeLa; assay: Antiproliferative activity against human HeLa cells assessed as inhibition of cell proliferation at 10 uM incubated for 72 hrs by CCK8 assay relative to control; type: functional; parameters: scale not given: the % may be the effect or the level left
[4] = test system: HCT-116; assay: Antiproliferative activity against human HCT-116 cells assessed as inhibition of cell proliferation at 10 uM incubated for 72 hrs by CCK8 assay relative to control; type: functional; parameters: scale not given: the % may be the effect or the level left
[5] = biological target: T1, von Hippel-Lindau disease tumor suppressor/Phosphatidylinositol 4,5-bisphosphate 3-kinase catalytic subunit alpha isoform (Homo sapiens) (UniProt P42336+P40337); assay: PROTAC activity at VHL/PI3K in human HeLa cells assessed as redcution in AKT phosphorylation at 3 uM incubated for 24 hrs by Western blotting analysis; type: cell-based
T1 sequence (P40337 whole entry, looked up, canonical isoform): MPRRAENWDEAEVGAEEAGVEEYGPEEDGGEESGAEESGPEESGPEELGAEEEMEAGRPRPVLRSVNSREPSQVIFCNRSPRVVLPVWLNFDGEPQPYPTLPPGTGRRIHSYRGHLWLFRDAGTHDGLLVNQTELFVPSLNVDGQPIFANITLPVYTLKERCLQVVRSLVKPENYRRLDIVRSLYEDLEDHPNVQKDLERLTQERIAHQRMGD
T1 sequence (P42336 whole entry, looked up, canonical isoform): as the sequence (P42336 whole entry, canonical isoform) above

[6] = biological target: T1, von Hippel-Lindau disease tumor suppressor/Phosphatidylinositol 4,5-bisphosphate 3-kinase catalytic subunit alpha isoform (Homo sapiens); assay: PROTAC activity at VHL/PI3K in human HeLa cells assessed as induction of PI3Kalpha degradation at 3 uM incubated for 24 hrs by Western blotting analysis; type: cell-based
[7] = biological target: T1, von Hippel-Lindau disease tumor suppressor/Phosphatidylinositol 4,5-bisphosphate 3-kinase catalytic subunit alpha isoform (Homo sapiens); assay: PROTAC activity at VHL/PI3K in human HeLa cells assessed as induction of PI3Kalpha degradation at 10 uM incubated for 24 hrs by Western blotting analysis; type: cell-based
[8] = biological target: T1, von Hippel-Lindau disease tumor suppressor/Phosphatidylinositol 4,5-bisphosphate 3-kinase catalytic subunit alpha isoform (Homo sapiens); assay: PROTAC activity at VHL/PI3K in human HeLa cells assessed as reduction in AKT phosphorylation at 10 uM incubated for 24 hrs by Western blotting analysis; type: cell-based
[9] = biological target: T1, von Hippel-Lindau disease tumor suppressor/Phosphatidylinositol 4,5-bisphosphate 3-kinase catalytic subunit alpha isoform (Homo sapiens); assay: PROTAC activity at VHL/PI3K in human HeLa cells assessed as induction of PI3Kalpha degradation at 1 to 10 uM incubated for 24 hrs by Western blotting analysis; type: cell-based; conditions: dose 1-10 µM
[10] = biological target: T1, von Hippel-Lindau disease tumor suppressor/Phosphatidylinositol 4,5-bisphosphate 3-kinase catalytic subunit alpha isoform (Homo sapiens); assay: PROTAC activity at VHL/PI3K in human HeLa cells assessed as inhibition of AKT phosphorylation by Western blotting analysis; type: cell-based; conditions: time 2-12 hrs, TDE = time-dependent effect
[11] = biological target: T1, von Hippel-Lindau disease tumor suppressor/Phosphatidylinositol 4,5-bisphosphate 3-kinase catalytic subunit alpha isoform (Homo sapiens); assay: PROTAC activity at VHL/PI3K in human HeLa cells assessed as induction of PI3Kalpha degradation by Western blotting analysis; type: cell-based; conditions: time 2-12 hrs, TDE = time-dependent effect

## COc1ncc(-c2ccc3ncc(-c4nnc(-c5ccccc5C(=O)NCCOCCOCCOCCOCC(=O)N[C@H](C(=O)N5CC(O)CC5C(=O)NCc5ccc(-c6scnc6C)cc5)C(C)(C)C)o4)n3c2)cc1NS(=O)(=O)c1ccc(F)cc1F (single isomer, unassigned)
[1]
  Activity: 50.35%
[2]
  inhibition: 57.5%
[3]
  Activity: 89.6%
[4]
  Activity: 57.87%

## COc1ncc(-c2ccc3ncc(-c4nnc(-c5ccccc5C(=O)NCCOCC(=O)N[C@H](C(=O)N5C[C@@H](O)C[C@@H]5C(=O)NCc5ccc(-c6scnc6C)cc5)C(C)(C)C)o4)n3c2)cc1NS(=O)(=O)c1ccc(F)cc1F
[1]
  Activity: 51.09%
[2]
  inhibition: 40.1%
[3]
  Activity: 23.41%
[4]
  Activity: 25.32%

## COc1ncc(-c2ccc3ncc(-c4nnc(-c5ccccc5C(=O)NCCCCCC(=O)N[C@H](C(=O)N5C[C@@H](O)C[C@@H]5C(=O)NCc5ccc(-c6scnc6C)cc5)C(C)(C)C)o4)n3c2)cc1NS(=O)(=O)c1ccc(F)cc1F
[5]
  Activity: Active
[1]
  Activity: 89.26%
[2]
  inhibition: 60%
[3]
  Activity: 94.03%
[6]
  Activity: Active
[7]
  Activity: Active
[4]
  Activity: 41.16%
[8]
  Activity: Active
[9]
  Activity: Active

## COc1ncc(-c2ccc3ncc(-c4nnc(-c5ccccc5C(=O)NCCCCCCCC(=O)N[C@H](C(=O)N5CC(O)CC5C(=O)NCc5ccc(-c6scnc6C)cc5)C(C)(C)C)o4)n3c2)cc1NS(=O)(=O)c1ccc(F)cc1F (single isomer, unassigned)
[1]
  Activity: 74.22%
[2]
  inhibition: 65.2%
[3]
  Activity: 87.89%
[4]
  Activity: 70.03%

## COc1ncc(-c2ccc3ncc(-c4nnc(-c5ccccc5C(=O)NCCCCC(=O)N[C@H](C(=O)N5C[C@@H](O)C[C@@H]5C(=O)NCc5ccc(-c6scnc6C)cc5)C(C)(C)C)o4)n3c2)cc1NS(=O)(=O)c1ccc(F)cc1F
[1]
  Activity: 82.88%
[2]
  inhibition: 22.2%
[3]
  Activity: 32.2%
[4]
  Activity: 23.94%

## COc1ncc(-c2ccc3ncc(-c4nnc(-c5ccccc5C(=O)NCCOCCOCCOCC(=O)N[C@H](C(=O)N5C[C@@H](O)C[C@@H]5C(=O)NCc5ccc(-c6scnc6C)cc5)C(C)(C)C)o4)n3c2)cc1NS(=O)(=O)c1ccc(F)cc1F
[1]
  Activity: 22.69%
[2]
  inhibition: 59.1%
[3]
  Activity: 90.1%
[4]
  Activity: 48.88%

## COC(=O)c1ccccc1-c1nnc(-c2cnc3ccc(-c4cnc(OC)c(NS(=O)(=O)c5ccc(F)cc5F)c4)cn23)o1
[1]
  Activity: 80.36%
[2]
  inhibition: 70.2%
[3]
  Activity: 99.37%
[4]
  Activity: 91.65%

## COc1ncc(-c2ccc3ncc(-c4nnc(-c5ccccc5C(=O)NCCOCCOCC(=O)N[C@H](C(=O)N5C[C@@H](O)C[C@@H]5C(=O)NCc5ccc(-c6scnc6C)cc5)C(C)(C)C)o4)n3c2)cc1NS(=O)(=O)c1ccc(F)cc1F
[1]
  Activity: 57.14%
[2]
  inhibition: 31.7%
[3]
  Activity: 89.21%
[4]
  Activity: 33.84%

## COc1ncc(-c2ccc3ncc(-c4nnc(-c5ccccc5C(=O)NCCOCCOCCOCCOCCOCCOCC(=O)N[C@H](C(=O)N5C[C@@H](O)C[C@@H]5C(=O)NCc5ccc(-c6scnc6C)cc5)C(C)(C)C)o4)n3c2)cc1NS(=O)(=O)c1ccc(F)cc1F
[2]
  inhibition: 48.6%
[3]
  Activity: 91.27%
[4]
  Activity: 56.24%

## COc1ncc(-c2ccc3ncc(-c4nnc(-c5ccccc5C(=O)NCCOCCOCCOCCOCCOCC(=O)N[C@H](C(=O)N5C[C@@H](O)C[C@@H]5C(=O)NCc5ccc(-c6scnc6C)cc5)C(C)(C)C)o4)n3c2)cc1NS(=O)(=O)c1ccc(F)cc1F
[1]
  Activity: 61.35%
[2]
  inhibition: 51.9%
[3]
  Activity: 85.58%
[4]
  Activity: 37.32%

## COc1ncc(-c2ccc3ncc(-c4nnc(-c5ccccc5C(=O)N[C@H](C(=O)N5C[C@@H](O)C[C@@H]5C(=O)NCc5ccc(-c6scnc6C)cc5)C(C)(C)C)o4)n3c2)cc1NS(=O)(=O)c1ccc(F)cc1F
[2]
  inhibition: 33.6%
[3]
  Activity: 30.38%
[4]
  Activity: 95.86%

## COc1ncc(-c2ccc3ncc(-c4nnc(-c5ccccc5C(=O)NCCCCCCC(=O)N[C@H](C(=O)N5C[C@@H](O)C[C@@H]5C(=O)NCc5ccc(-c6scnc6C)cc5)C(C)(C)C)o4)n3c2)cc1NS(=O)(=O)c1ccc(F)cc1F
[5]
  Activity: Active
[1]
  Activity: 72.18%
[2]
  inhibition: 49.8%
[10]
  Activity: Tde
[3]
  Activity: 96.33%
[6]
  Activity: Active
[11]
  Activity: Tde
[7]
  Activity: Active
[4]
  Activity: 50.3%
[8]
  Activity: Active
[9]
  Activity: Active

## COc1ncc(-c2ccc3ncc(-c4nnc(-c5ccccc5C(=O)O)o4)n3c2)cc1NS(=O)(=O)c1ccc(F)cc1F
[2]
  inhibition: 67.1%
[3]
  Activity: 1.62%
[4]
  Activity: 8.23%
